This note sets out measurements from ChEMBL document CHEMBL1123299, “New antiarrhythmic agents. 2,2,5,5-Tetramethyl-3-pyrroline-3-carboxamides and 2,2,5,5-tetramethylpyrrolidine-3-carboxamindes” (J Med Chem, 1986).

As usually defined, the LD50 is the dose at which mortality reaches 50%. Low values mean greater toxicity, high ones lower toxicity.

One data set is filed under the species Rattus norvegicus. Kind of data set: Relative potency with reference to quinidine. It is filed as functional.
Settings: not given
On to `Cc1nc2ccccc2c(=O)n1CCCNC(=O)C1=CC(C)(C)NC1(C)C`, for which the Relative potency turned out to be 2.6.

On to `CC1(C)CC(C(=O)NCCCNCc2ccsc2)C(C)(C)N1` (stereo unspecified), for which the Relative potency stood at 0.9.

For `COc1cc(C(=O)NCCCNC(=O)C2=CC(C)(C)NC2(C)C)cc(OC)c1OC`, the Relative potency was determined as 0.97.

Consider `CC1(C)C=C(C(=O)NCCN2C(=O)c3ccccc3C2=O)C(C)(C)N1`, for which the Relative potency worked out at 1.5.

The compound `CC1(C)C=C(C(=O)NCCCCNCc2cccs2)C(C)(C)N1` showed a Relative potency of 2.5.

In turn, `CC1(C)CC(C(=O)NCCCN2C(=O)c3ccccc3C2=O)C(C)(C)N1` (stereo unspecified) registered a Relative potency of 2.6.

Turning to `CC1(C)CC(C(=O)NCCCNCc2cccs2)C(C)(C)N1` (stereo unspecified), the Relative potency came out at 2.8.

`CC1(C)C=C(C(=O)NCCCNC(=O)Cc2cccs2)C(C)(C)N1` yielded a Relative potency of 3.8.

In turn, `CC1(C)C=C(C(=O)NCC(O)CN2C(=O)c3ccccc3C2=O)C(C)(C)N1` (stereo unspecified) came in with a Relative potency of 3.9.

As to `CC1(C)C=C(C(=O)NCCCNCc2ccccc2)C(C)(C)N1`, the Relative potency was 3.3.

As to `CC1(C)CC(C(=O)NCCCNCc2ccc(C(F)(F)F)cc2)C(C)(C)N1` (stereo unspecified), the Relative potency is recorded as 4.1.

`CCc1nc2ccccc2c(=O)n1CCNC(=O)C1=CC(C)(C)NC1(C)C` returned a Relative potency of 1.1.

Take `CCc1nc2ccccc2c(=O)n1CCCNC(=O)C1CC(C)(C)NC1(C)C` (stereo unspecified): the Relative potency is 4.4.

Compound `CC1(C)C=C(C(=O)NCCCNCc2ccsc2)C(C)(C)N1` had a Relative potency of 2.2.

Test system in the next data set: not listed separately
Kind of data set: Acute toxicity determined after intravenal administration in mice. The class given is organism-based. The conditions noted are these: mouse, in vivo, iv.
Compound `CC1(C)C=C(C(=O)NCCCN2C(=O)C3CCCCC3C2=O)C(C)(C)N1` (stereo unspecified) displayed an LD50 of 106 mg/kg.

On to `CC1(C)C=C(C(=O)NCCCNC(=O)COc2ccc(Cl)cc2Cl)C(C)(C)N1`, for which the LD50 is 20 mg/kg.

Consider `CC1(C)C=C(C(=O)NCCCNCc2ccccn2)C(C)(C)N1`, for which the LD50 amounted to 102 mg/kg.

Regarding `CC1(C)C=C(C(=O)NCCCNC(=O)c2cccs2)C(C)(C)N1`, the LD50 was determined as 48 mg/kg.

With `CC1(C)C=C(C(=O)NCCN2C(=O)C3CCCCC3C2=O)C(C)(C)N1` (stereo unspecified), the LD50 is 128 mg/kg.

As to `CC1(C)C=C(C(=O)NCCCNCc2ccco2)C(C)(C)N1`, the LD50 is 34 mg/kg.

`COc1cc(CNCCNC(=O)C2=CC(C)(C)NC2(C)C)cc(OC)c1OC` showed an LD50 of 56 mg/kg.

In turn, `CC1(C)C=C(C(=O)NCCNC(=O)C2CCCCC2C(=O)O)C(C)(C)N1` (stereo unspecified) showed an LD50 of 1130 mg/kg.

`CC(CNC(=O)C1=CC(C)(C)NC1(C)C)NCc1cccs1` (stereo unspecified): the LD50 stood at 68 mg/kg.

`CC1(C)C=C(C(=O)NC(C(N)=O)c2ccccc2)C(C)(C)N1` (stereo unspecified) had an LD50 of 75 mg/kg.

Compound `CC1(C)C=C(C(=O)NCCNC(=O)C(C)(C)Oc2ccc(Cl)cc2)C(C)(C)N1` registered an LD50 of 47 mg/kg.

For the compound `COc1ccc(CNC(=O)C2=CC(C)(C)NC2(C)C)cc1`, the LD50 turned out to be 66 mg/kg.

In the case of `CC1(C)C=C(C(=O)NCCNCc2cccs2)C(C)(C)N1`, the LD50 came to 123 mg/kg.

In turn, `CC1(C)C=C(C(=O)NCCNC(=O)COc2ccc(Cl)cc2Cl)C(C)(C)N1` showed an LD50 of 37 mg/kg.

With `CC(=O)Nc1ccc(CNCCCNC(=O)C2=CC(C)(C)NC2(C)C)cc1`, the LD50 was 23 mg/kg.

Consider `CC1(C)C=C(C(=O)NCCCNC(=O)Cc2ccccc2)C(C)(C)N1`, for which the LD50 was 54 mg/kg.

`COc1ccc(CNCCNC(=O)C2=CC(C)(C)NC2(C)C)cc1OC` yielded an LD50 of 61 mg/kg.

In the case of `CC1(C)C=C(C(=O)NCC(C)(C)NCc2cccs2)C(C)(C)N1`, the LD50 amounted to 49 mg/kg.

As to `CC1(C)C=C(C(=O)NCc2ccccc2)C(C)(C)N1`, the LD50 came to 34 mg/kg.

Another data set concerns Rattus norvegicus. As to the kind of experiment: Incidence of arrhythmias in rats after a intravenal administration at 4 mg/kg, expressed as no. of positive cases out of no. of tested cases (10). The class given is functional.
Settings: not given
For `CC1(C)C=C(C(=O)NCCCN2C(=O)C3CCCCC3C2=O)C(C)(C)N1` (stereo unspecified), the “No. of positive cases” value is 0.

In the case of `Cc1nc2ccccc2c(=O)n1CCCNC(=O)C1=CC(C)(C)NC1(C)C`, the “No. of positive cases” value was 10.

Consider `CC1(C)C=C(C(=O)NCCCNC(=O)COc2ccc(Cl)cc2Cl)C(C)(C)N1`, for which the “No. of positive cases” value amounted to 5.

Take `CC1(C)CC(C(=O)NCCCNCc2ccsc2)C(C)(C)N1` (stereo unspecified): the “No. of positive cases” value was found to be 7.

For `CC1(C)C=C(C(=O)NCCCNCc2ccccn2)C(C)(C)N1`, the “No. of positive cases” value worked out at 0.

Turning to `CC1(C)C=C(C(=O)NCCCNC(=O)c2cccs2)C(C)(C)N1`, the “No. of positive cases” value stood at 4.

As to `COc1cc(C(=O)NCCCNC(=O)C2=CC(C)(C)NC2(C)C)cc(OC)c1OC`, the “No. of positive cases” value was 5.

Regarding `CC1(C)C=C(C(=O)NCCN2C(=O)C3CCCCC3C2=O)C(C)(C)N1` (stereo unspecified), the “No. of positive cases” value was found to be 0.

For the compound `CC1(C)C=C(C(=O)NCCCNCc2ccco2)C(C)(C)N1`, the “No. of positive cases” value was 0.

Take `CC1(C)C=C(C(=O)NCCN2C(=O)c3ccccc3C2=O)C(C)(C)N1`: the “No. of positive cases” value stood at 7.

With `COc1cc(CNCCNC(=O)C2=CC(C)(C)NC2(C)C)cc(OC)c1OC`, the “No. of positive cases” value is given as 2.

As for `CC1(C)C=C(C(=O)NCCNC(=O)C2CCCCC2C(=O)O)C(C)(C)N1` (stereo unspecified), the “No. of positive cases” value is listed as 0.

For the compound `CC(CNC(=O)C1=CC(C)(C)NC1(C)C)NCc1cccs1` (stereo unspecified), the “No. of positive cases” value is given as 4.

Regarding `CC1(C)C=C(C(=O)NC(C(N)=O)c2ccccc2)C(C)(C)N1` (stereo unspecified), the “No. of positive cases” value came out at 2.

`CC1(C)C=C(C(=O)NCCCCNCc2cccs2)C(C)(C)N1`: the “No. of positive cases” value stood at 10.

With `CC1(C)C=C(C(=O)NCCNC(=O)C(C)(C)Oc2ccc(Cl)cc2)C(C)(C)N1`, the “No. of positive cases” value stood at 0.

Consider `COc1ccc(CNC(=O)C2=CC(C)(C)NC2(C)C)cc1`, for which the “No. of positive cases” value is given as 0.

With `CC1(C)CC(C(=O)NCCCN2C(=O)c3ccccc3C2=O)C(C)(C)N1` (stereo unspecified), the “No. of positive cases” value came out at 10.

Consider `CC1(C)CC(C(=O)NCCCNCc2cccs2)C(C)(C)N1` (stereo unspecified), for which the “No. of positive cases” value is 10.

For the compound `CC1(C)C=C(C(=O)NCCNCc2cccs2)C(C)(C)N1`, the “No. of positive cases” value is recorded as 3.

In the case of `CC1(C)C=C(C(=O)NCCNC(=O)COc2ccc(Cl)cc2Cl)C(C)(C)N1`, the “No. of positive cases” value is reported as 4.

`CC(=O)Nc1ccc(CNCCCNC(=O)C2=CC(C)(C)NC2(C)C)cc1`: the “No. of positive cases” value came to 2.

In the case of `CC1(C)C=C(C(=O)NCCCNC(=O)Cc2ccccc2)C(C)(C)N1`, the “No. of positive cases” value was determined as 6.

`CC1(C)C=C(C(=O)NCCCNC(=O)Cc2cccs2)C(C)(C)N1`: the “No. of positive cases” value was 8.

As to `COc1ccc(CNCCNC(=O)C2=CC(C)(C)NC2(C)C)cc1OC`, the “No. of positive cases” value amounted to 2.

Consider `CC1(C)C=C(C(=O)NCC(C)(C)NCc2cccs2)C(C)(C)N1`, for which the “No. of positive cases” value was found to be 1.

Regarding `CC1(C)C=C(C(=O)NCc2ccccc2)C(C)(C)N1`, the “No. of positive cases” value stood at 3.

For `CC1(C)C=C(C(=O)NCC(O)CN2C(=O)c3ccccc3C2=O)C(C)(C)N1` (stereo unspecified), the “No. of positive cases” value turned out to be 10.

As for `CC1(C)C=C(C(=O)NCCCNCc2ccccc2)C(C)(C)N1`, the “No. of positive cases” value worked out at 9.

`CC1(C)CC(C(=O)NCCCNCc2ccc(C(F)(F)F)cc2)C(C)(C)N1` (stereo unspecified): the “No. of positive cases” value worked out at 9.

On to `CCc1nc2ccccc2c(=O)n1CCNC(=O)C1=CC(C)(C)NC1(C)C`, for which the “No. of positive cases” value stood at 10.

With `CCc1nc2ccccc2c(=O)n1CCCNC(=O)C1CC(C)(C)NC1(C)C` (stereo unspecified), the “No. of positive cases” value was 10.

As to `CC1(C)C=C(C(=O)NCCCNCc2ccsc2)C(C)(C)N1`, the “No. of positive cases” value is listed as 9.
